Source: patent US20150087627A1, “COMBINATION OF KINASE INHIBITORS AND USES THEREOF” (Intellikine LLC, priority 2011, published 2015)
Where two headings read alike, the source gives them in different places.

Columns and labels:
Format in all cases: biochemical
PI3K β (p110β/p85α) = target: T1, PI3K β (p110β/p85α) (Homo sapiens, UniProt P42338); experiment: PI 3-Kinase (human) HTRF assay, PI3K β
T1 construct: purchased Upstate / Millipore Corporation

PI3K γ (p110γ) = target: T2, PI3K γ (p110γ) (Homo sapiens, UniProt P48736); experiment: PI 3-Kinase (human) HTRF assay, PI3K γ; conditions: read-out: PI3K γ IC50
T2 construct: purchased Upstate / Millipore Corporation
T2 sequence (P48736 whole entry): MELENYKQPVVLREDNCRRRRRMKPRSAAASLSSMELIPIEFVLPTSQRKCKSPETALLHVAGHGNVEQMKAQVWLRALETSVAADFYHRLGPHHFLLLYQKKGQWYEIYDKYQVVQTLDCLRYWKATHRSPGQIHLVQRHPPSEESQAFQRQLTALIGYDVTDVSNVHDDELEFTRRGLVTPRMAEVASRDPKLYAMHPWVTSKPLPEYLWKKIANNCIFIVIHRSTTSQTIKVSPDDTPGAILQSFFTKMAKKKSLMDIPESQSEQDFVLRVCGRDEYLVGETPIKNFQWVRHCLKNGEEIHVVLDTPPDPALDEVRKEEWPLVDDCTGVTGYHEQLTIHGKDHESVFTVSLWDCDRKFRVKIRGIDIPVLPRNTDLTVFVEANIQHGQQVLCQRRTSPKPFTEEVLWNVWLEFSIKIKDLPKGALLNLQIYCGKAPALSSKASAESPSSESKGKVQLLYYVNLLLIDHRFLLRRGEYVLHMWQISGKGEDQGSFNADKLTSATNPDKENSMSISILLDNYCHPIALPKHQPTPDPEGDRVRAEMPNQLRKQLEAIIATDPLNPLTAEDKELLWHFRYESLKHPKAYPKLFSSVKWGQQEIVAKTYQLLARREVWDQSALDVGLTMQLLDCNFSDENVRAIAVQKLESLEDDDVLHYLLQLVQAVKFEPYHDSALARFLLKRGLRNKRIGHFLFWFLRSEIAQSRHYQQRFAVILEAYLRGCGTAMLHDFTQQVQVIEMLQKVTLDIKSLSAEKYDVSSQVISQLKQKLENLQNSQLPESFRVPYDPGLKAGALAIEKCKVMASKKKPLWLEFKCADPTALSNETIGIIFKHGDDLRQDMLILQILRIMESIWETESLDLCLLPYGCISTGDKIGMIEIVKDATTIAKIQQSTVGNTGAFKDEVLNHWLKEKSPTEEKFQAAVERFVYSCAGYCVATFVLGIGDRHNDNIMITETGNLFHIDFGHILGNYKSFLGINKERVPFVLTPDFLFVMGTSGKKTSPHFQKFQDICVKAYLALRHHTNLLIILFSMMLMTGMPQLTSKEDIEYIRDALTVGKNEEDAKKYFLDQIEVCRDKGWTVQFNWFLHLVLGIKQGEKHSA

PI3K α (p110α/p85α) = target: T3, PI3K α (p110α/p85α) (Homo sapiens, UniProt P42336); experiment: PI 3-Kinase (human) HTRF assay, PI3K α; conditions: read-out: PI3K α IC50
T3 construct: purchased Upstate / Millipore Corporation
T3 sequence (P42336 whole entry): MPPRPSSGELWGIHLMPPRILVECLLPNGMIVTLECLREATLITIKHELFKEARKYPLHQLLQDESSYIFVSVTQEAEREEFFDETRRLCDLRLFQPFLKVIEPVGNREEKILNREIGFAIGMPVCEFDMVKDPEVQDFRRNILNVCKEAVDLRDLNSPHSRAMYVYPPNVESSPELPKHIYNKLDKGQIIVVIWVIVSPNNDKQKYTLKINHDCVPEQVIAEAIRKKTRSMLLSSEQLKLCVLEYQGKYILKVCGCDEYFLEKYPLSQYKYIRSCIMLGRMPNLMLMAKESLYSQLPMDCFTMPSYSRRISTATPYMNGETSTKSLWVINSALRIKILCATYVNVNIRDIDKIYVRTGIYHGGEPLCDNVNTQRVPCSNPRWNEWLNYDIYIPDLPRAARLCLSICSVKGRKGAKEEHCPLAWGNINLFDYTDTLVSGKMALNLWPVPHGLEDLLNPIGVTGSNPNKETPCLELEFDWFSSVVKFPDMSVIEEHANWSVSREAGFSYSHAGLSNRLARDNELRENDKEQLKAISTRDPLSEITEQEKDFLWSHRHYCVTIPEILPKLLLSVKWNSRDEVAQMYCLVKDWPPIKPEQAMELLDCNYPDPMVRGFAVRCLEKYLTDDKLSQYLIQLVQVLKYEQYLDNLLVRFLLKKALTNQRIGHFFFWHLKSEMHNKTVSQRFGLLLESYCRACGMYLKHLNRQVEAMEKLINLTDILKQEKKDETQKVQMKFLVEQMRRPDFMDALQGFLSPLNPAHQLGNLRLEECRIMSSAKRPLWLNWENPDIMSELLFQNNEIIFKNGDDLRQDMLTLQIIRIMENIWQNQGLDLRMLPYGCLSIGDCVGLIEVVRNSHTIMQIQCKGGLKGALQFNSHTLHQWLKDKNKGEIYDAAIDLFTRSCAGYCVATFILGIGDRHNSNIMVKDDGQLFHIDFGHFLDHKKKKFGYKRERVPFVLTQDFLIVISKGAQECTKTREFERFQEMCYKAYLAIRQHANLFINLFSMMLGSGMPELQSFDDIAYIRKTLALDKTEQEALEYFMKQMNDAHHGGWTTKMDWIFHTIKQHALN
T3 sequence (P27986 whole entry partner): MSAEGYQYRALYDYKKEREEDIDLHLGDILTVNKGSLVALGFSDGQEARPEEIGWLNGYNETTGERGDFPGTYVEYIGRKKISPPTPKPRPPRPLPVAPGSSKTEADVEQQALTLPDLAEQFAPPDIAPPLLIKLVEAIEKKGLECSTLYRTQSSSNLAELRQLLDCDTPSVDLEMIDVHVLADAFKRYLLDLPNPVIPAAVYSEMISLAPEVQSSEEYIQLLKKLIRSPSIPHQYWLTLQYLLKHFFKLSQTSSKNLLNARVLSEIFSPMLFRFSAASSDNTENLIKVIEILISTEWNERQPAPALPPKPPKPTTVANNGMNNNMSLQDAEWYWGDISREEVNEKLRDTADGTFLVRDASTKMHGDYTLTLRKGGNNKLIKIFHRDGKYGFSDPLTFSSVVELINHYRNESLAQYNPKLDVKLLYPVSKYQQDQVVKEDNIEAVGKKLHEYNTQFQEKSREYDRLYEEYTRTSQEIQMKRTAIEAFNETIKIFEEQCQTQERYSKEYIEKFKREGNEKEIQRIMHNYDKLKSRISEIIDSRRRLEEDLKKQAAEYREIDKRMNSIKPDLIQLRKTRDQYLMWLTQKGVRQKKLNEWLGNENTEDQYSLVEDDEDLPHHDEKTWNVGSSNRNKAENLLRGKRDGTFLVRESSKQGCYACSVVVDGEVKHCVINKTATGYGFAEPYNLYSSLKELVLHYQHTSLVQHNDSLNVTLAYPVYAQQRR

PI3K δ = target: T4, PI3K δ (Homo sapiens, UniProt O00329); experiment: PI 3-Kinase (human) HTRF assay, PI3K δ
T4 construct: purchased Upstate / Millipore Corporation
T4 sequence (O00329 whole entry): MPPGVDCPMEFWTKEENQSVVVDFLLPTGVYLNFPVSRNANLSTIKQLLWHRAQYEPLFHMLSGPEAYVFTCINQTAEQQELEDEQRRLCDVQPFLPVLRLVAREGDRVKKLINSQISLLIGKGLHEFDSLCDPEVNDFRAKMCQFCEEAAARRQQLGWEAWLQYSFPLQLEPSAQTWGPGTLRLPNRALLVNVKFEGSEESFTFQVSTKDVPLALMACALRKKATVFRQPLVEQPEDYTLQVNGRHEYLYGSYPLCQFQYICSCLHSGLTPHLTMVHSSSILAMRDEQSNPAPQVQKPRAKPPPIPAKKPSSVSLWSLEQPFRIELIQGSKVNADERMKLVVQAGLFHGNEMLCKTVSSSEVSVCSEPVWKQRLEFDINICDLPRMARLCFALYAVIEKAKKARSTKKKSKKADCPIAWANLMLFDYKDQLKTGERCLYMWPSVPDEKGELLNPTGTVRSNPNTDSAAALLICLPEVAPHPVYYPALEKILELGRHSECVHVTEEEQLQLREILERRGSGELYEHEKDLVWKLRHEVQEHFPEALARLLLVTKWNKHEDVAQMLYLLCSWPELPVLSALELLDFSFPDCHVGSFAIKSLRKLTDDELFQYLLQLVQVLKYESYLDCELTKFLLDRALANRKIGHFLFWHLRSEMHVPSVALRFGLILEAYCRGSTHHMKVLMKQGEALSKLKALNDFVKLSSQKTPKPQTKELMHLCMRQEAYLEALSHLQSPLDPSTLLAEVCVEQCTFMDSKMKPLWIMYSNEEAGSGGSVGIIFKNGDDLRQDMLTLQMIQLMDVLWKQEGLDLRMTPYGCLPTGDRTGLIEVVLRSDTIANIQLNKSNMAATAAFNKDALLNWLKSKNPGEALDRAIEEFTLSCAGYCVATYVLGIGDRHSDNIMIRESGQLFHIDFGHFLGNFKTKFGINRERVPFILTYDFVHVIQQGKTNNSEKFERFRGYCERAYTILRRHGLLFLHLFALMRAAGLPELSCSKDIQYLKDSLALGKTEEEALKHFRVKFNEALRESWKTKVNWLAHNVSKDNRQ
T4 sequence (P27986 whole entry partner): as the sequence (P27986 whole entry partner) above

T1 sequence (P42338 whole entry): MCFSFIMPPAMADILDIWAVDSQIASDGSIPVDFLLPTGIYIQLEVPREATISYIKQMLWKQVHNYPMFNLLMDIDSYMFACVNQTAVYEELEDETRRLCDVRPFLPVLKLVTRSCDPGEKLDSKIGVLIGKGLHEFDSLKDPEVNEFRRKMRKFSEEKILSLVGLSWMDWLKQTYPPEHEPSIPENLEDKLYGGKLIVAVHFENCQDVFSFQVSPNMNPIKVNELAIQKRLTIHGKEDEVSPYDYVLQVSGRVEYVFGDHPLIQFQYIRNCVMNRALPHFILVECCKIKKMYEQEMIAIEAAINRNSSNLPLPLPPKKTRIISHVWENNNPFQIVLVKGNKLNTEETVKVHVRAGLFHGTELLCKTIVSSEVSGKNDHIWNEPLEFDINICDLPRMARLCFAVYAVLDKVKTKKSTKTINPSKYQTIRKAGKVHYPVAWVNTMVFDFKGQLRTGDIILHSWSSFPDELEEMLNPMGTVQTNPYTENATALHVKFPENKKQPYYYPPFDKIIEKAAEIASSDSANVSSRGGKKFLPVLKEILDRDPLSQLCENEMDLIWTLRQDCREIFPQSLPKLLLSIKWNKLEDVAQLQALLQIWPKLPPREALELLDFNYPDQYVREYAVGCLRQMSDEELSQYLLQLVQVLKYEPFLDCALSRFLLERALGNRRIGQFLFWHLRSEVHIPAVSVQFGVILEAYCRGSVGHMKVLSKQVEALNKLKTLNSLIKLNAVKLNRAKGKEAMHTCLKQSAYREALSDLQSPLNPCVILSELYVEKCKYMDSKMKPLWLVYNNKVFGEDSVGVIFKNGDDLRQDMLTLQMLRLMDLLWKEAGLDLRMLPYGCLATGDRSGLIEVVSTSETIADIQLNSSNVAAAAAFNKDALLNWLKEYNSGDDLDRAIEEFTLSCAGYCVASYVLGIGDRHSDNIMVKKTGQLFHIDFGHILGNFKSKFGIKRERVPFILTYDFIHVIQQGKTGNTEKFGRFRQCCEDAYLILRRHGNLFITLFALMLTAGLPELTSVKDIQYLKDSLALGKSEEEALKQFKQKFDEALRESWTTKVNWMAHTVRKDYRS
T1 sequence (P27986 whole entry partner): as the sequence (P27986 whole entry partner) above

SMILES	IC50 (PI3K β (p110β/p85α); read-out: PI3K β IC50) [nM]	IC50 (PI3K γ (p110γ)) [µM]	IC50 (PI3K α (p110α/p85α)) [µM]	IC50 (PI3K δ; read-out: PI3K δ IC50) [µM]	IC50 (PI3K β (p110β/p85α); Table 4 (PI3K α inhibitors), read-out: PI3K β IC50) [nM]	IC50 (PI3K γ (p110γ); Table 4 (PI3K α inhibitors)) [µM]	IC50 (PI3K α (p110α/p85α); Table 4 (PI3K α inhibitors)) [µM]	IC50 (PI3K δ; Table 4 (PI3K α inhibitors), read-out: PI3K δ IC50) [µM]	IC50 (PI3K β (p110β/p85α); PI3K β IC50 (nM)) [nM]	IC50 (PI3K δ) [µM]
Nc1nc2cc(-c3ccc4ncc(N5CCN(CC6CC6)CC5)nc4c3)ccc2o1 [Compound 153]	< 100	< 1	< 0.1	< 1						
Nc1nc2cc(-c3ccc4ncc(N5CCNC(C(F)F)C5)nc4c3)ccc2o1 (centres unmarked) [Compound 413]	< 1000	< 1	< 0.1	< 10						
CCN1CCN(C(=O)c2cnc3ccc(-c4ccc5oc(N)nc5c4)cn23)CC1 [Compound 141]	> 10000	< 10	< 1	> 10						
Nc1nc2cc(-c3ccc4nccc(-c5ccncc5)c4c3)ccc2s1 [Compound 70]	< 100	< 0.1	< 0.1	< 0.1						
CC(=O)NC1CCN(C(=O)c2cnc3ccc(-c4ccc5oc(N)nc5c4)cn23)CC1 [Compound 147]	< 10000	< 10	< 1	< 10						
Nc1nc2cc(-c3ccc4ncc(N5CCN(CC6CC6)CC5=O)nc4c3)ccc2o1 [Compound 393]	> 10000	> 10	< 10	> 10						
CC1CN(C(=O)c2cnc3ccc(-c4ccc5oc(N)nc5c4)cn23)CCN1 (centres unmarked) [Compound 164]	< 1000	> 10	< 1	> 10						
Nc1nc2cc(-c3ccc4ncc(C(=O)N5CCC(N6CCOCC6)CC5)n4c3)ccc2o1 [Compound 163]	< 10000	< 10	< 1	< 10						
Nc1nc2cc(-c3ccc4ncc(C(=O)N5CC6(C5)OCCO6)n4c3)ccc2o1 [Compound 494]		< 1	< 0.1						< 10000	> 10
Nc1nc2cc(-c3cc4nccc(-c5ccncc5)c4s3)ccc2o1 [Compound 14]	> 10000	< 10	< 10	> 10						
Nc1nc2cc(-c3c[nH]c4nccc(-c5ccncc5)c34)ccc2o1 [Compound 25]	> 10000	< 10	< 10	> 10						
CC1CN(C(=O)c2cnc3ccc(-c4ccc5oc(N)nc5c4)cn23)CC(C)N1 (centres unmarked) [Compound 142]	> 10000	> 10	< 10	> 10						
Cc1nc2ccc(-c3ccc4oc(N)nc4c3)cn2c1C(=O)N1CCOCC1 [Compound 92]	> 10000	> 10	> 10	> 10						
C[C@@H]1CN(C(=O)c2cnc3ccc(-c4ccc5oc(N)nc5c4)cn23)C[C@H](C)O1 [Compound 106]	> 10000	< 10	< 10	> 10						
CN1CCC(NC(=O)c2cnc3ccc(-c4ccc5oc(N)nc5c4)cn23)CC1 [Compound 159]	< 1000	< 1	< 0.1	< 0.1						
Cn1c(N2CCOCC2)nc2cc(-c3ccc4oc(N)nc4c3)ccc2c1=O [Compound 80]	> 10000	> 10	< 1	> 10						
CN1CCN(c2ncnc3ccc(-c4ccc5oc(N)nc5c4)cc23)CC1 [Compound 23]	< 1000	< 0.1	< 0.1	< 10						
Nc1nc2cc(-c3ccc4ncc(N5CCS(=O)(=O)CC5)nc4c3)ccc2o1 [Compound 98]	> 10000	< 0.1	< 0.1	> 10						
Nc1nc2cccc(-c3ccc4nccc(-c5ccncc5)c4c3)c2s1 [Compound 17]	< 1000	< 0.1	< 0.1	< 1						
O=C(c1cnc2ccc(-c3ccc4oc(Nc5ccccc5)nc4c3)cn12)N1CCOCC1 [Compound 407]	< 10000	> 10	> 10	> 10						
Nc1nc2ccc(-c3ccc4ncc(C(=O)N5CCOCC5)n4c3)cc2s1 [Compound 125]	> 10000	< 1	< 1	< 10						
CO[C@@H]1CCN(C(=O)c2cnc3ccc(-c4ccc5oc(N)nc5c4)cn23)C1 [Compound 464]	> 10000	< 1	< 0.1	> 10						
CN1CCC(N(C)C(=O)c2cnc3ccc(-c4ccc5oc(N)nc5c4)cn23)CC1 [Compound 165]	< 10000	> 10	< 1	< 10						
Nc1nc2cc(-c3ccc4ncc(-c5cccnc5)n4n3)ccc2o1 [Compound 58]	< 100	< 0.1	< 0.1	< 0.1						

Second part, led by results:

IC50 (PI3K β (p110β/p85α); read-out: PI3K β IC50) [nM]	IC50 (PI3K γ (p110γ)) [µM]	IC50 (PI3K α (p110α/p85α)) [µM]	IC50 (PI3K δ; read-out: PI3K δ IC50) [µM]	IC50 (PI3K β (p110β/p85α); Table 4 (PI3K α inhibitors), read-out: PI3K β IC50) [nM]	IC50 (PI3K γ (p110γ); Table 4 (PI3K α inhibitors)) [µM]	IC50 (PI3K α (p110α/p85α); Table 4 (PI3K α inhibitors)) [µM]	IC50 (PI3K δ; Table 4 (PI3K α inhibitors), read-out: PI3K δ IC50) [µM]	SMILES	IC50 (PI3K β (p110β/p85α); PI3K β IC50 (nM)) [nM]	IC50 (PI3K δ) [µM]
< 10000	< 10	< 0.1	< 1					C[C@@H]1CN(C2CN(C(=O)c3cnc4ccc(-c5ccc6oc(N)nc6c5)cn34)C2)CCN1C [Compound 508]		
> 10000	< 0.1	< 0.1	< 1					O=C(c1cnc2ccc(-c3cncc(NS(=O)(=O)c4ccc(F)cc4F)c3)cn12)N1CCOCC1 [Compound 425]		
> 10000	> 10	< 10	> 10					Nc1nc2ccc(-c3ccc4nnc(C(=O)N5CCCC5)n4c3)cc2o1 [Compound 305]		
< 1000	< 1	< 0.1	< 1					CN1CC2CN(C(=O)c3cnc4ccc(-c5ccc6oc(N)nc6c5)cn34)CC2C1 (centres unmarked) [Compound 533]		
> 10000	< 10	< 1	> 10					Cc1ccn(C2CCN(C(=O)c3cnc4ccc(-c5ccc6oc(N)nc6c5)cn34)CC2)n1 [Compound 297]		
< 1000	< 0.1	< 0.1	< 10					Nc1nc2cc(-c3ccc4ncc(C(=O)N5CCOCC5)n4c3)cc(Cl)c2o1 [Compound 359]		
< 10000	> 10	< 1	> 10					Nc1nc2cc(-c3ccc4ncc(N5CC(N6CCOCC6)C5)nc4c3)c(Cl)cc2o1 [Compound 371]		
> 10000	< 10	< 1	< 10					Nc1nc2cc(-c3ccc4ncc(N5CC(N6CCC(O)CC6)C5)nc4c3)ccc2o1 [Compound 341]		
				< 1000	< 1	< 0.1	< 1	C[C@H](N)C(=O)N1CCN(c2cnc3ccc(-c4ccc5oc(N)nc5c4)nc3c2)CC1 [Compound 589]		
> 10000	> 10	< 10	> 10					CCN(CC)CCn1cnc2ccc(-c3ccc4oc(N)nc4c3)cc2c1=O [Compound 224]		
> 10000	> 10	> 10	> 10					Cc1cc(-c2ccc3nc(N)oc3c2)cn2c(CCN3CCN(C)CC3)nnc12 [Compound 548]		
< 10000	< 1	< 0.1	< 1					Nc1nc2cc(-c3ccc4ncc(C(=O)N5CC(N6CCOCC6)C5)n4c3)ccc2o1 [Compound 266]		
< 10000	< 10	< 10	< 10					Nc1nc2cc(-c3ccc4ncn(CCN5CCCC5)c(=O)c4c3)ccc2o1 [Compound 255]		
> 10000	> 10	> 10	> 10					CC(C)N1CCN(c2cnc3ccc(-c4ccc5oc(N)nc5c4)cc3n2)C(=O)C1 [Compound 392]		
